Reference: patent publication US9023789B2, “Amylin analogs and pharmaceutical compositions thereof” (Novo Nordisk A/S, priority 2012, dated 2015)
Numbered stars: 1 amine (or outer) side, 2 acyl side, 3 side chain; on linkers, the order of the positions; unused ones are H or OH. Bridge positions count the residues as written; N and C are the ends. Side chains are listed from the residue outwards. Peptide text beside a SMILES is read from it. * marks the point of attachment. C20 diacid = O=C(O)CCCCCCCCCCCCCCCCCCC(=O)*; γGlu = O=C(O)[C@H](CCC(=O)[*:2])N[*:1]; AEEA = NCCOCCOCC(=O)O

Biological target: T1, human calcitonin (a) receptor in BHK570 cells (Homo sapiens, UniProt P30988)
T1 construct: expressed in transfected cells
T1 sequence (P30988 25-474): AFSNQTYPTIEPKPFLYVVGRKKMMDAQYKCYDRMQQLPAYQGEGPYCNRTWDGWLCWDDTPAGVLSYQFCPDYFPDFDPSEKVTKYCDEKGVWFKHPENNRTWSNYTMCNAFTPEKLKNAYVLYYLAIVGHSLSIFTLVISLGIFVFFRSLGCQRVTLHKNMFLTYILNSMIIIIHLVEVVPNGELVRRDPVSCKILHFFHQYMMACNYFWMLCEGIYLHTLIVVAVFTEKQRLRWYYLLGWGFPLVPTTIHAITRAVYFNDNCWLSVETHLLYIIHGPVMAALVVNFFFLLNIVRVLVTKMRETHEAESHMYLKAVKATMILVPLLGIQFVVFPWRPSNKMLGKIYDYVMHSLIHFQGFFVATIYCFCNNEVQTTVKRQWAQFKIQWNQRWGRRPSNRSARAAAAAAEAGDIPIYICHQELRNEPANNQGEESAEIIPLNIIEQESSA
Test: ASSAY (II)a functional assay, human calcitonin receptor (CRE luciferase)
Format: cell-based
Settings: read-out: hCTR funct. EC50
Method in brief: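 BHK cells stably carrying a CRE-luciferase reporter plus calcitonin receptor, or calcitonin receptor with RAMP-3 for the amylin 3(a) receptor, were seeded and kept overnight at 37° C. Compounds were added in assay medium with 10% FBS and 10 mM Hepes, pH 7.4, for 3 hours at 37° C, then luminescence was counted.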

| Compound | EC50 |
| --- | --- |
| CC[C@H](C)[C@H](NC(=O)[C@H](C)NC(=O)CNC(=O)[C@H](Cc1ccccc1)NC(=O)[C@H](CC(N)=O)NC(=O)[C@@H]1CCCN1C(=O)[C@H](CO)NC(=O)[C@H](CO)NC(=O)[C@H](Cc1c[nH]cn1)NC(=O)[C@H](CCCNC(=N)N)NC(=O)[C@H](CC(C)C)NC(=O)[C@H](Cc1ccccc1)NC(=O)[C@H](CCCNC(=N)N)NC(=O)[C@H](C)NC(=O)[C@H](CC(C)C)NC(=O)[C@H](CCCNC(=N)N)NC(=O)[C@H](CCC(N)=O)NC(=O)[C@@H](NC(=O)[C@H](C)NC(=O)[C@@H]1CSSC[C@H](NC(=O)[C@@H](N)CCCCNC(=O)COCCOCCNC(=O)CC[C@H](NC(=O)CCCCCCCCCCCCCCCCCCC(=O)O)C(=O)O)C(=O)N[C@@H](CC(N)=O)C(=O)N[C@@H]([C@@H](C)O)C(=O)N[C@@H](C)C(=O)N[C@@H]([C@@H](C)O)C(=O)N1)[C@@H](C)O)C(=O)N1CCC[C@H]1C(=O)N[C@@H](CO)C(=O)N[C@@H](CO)C(=O)N[C@H](C(=O)N1CCC[C@H]1C(=O)N[C@H](C(=O)NCC(=O)N[C@@H](CO)C(=O)N[C@@H](CC(N)=O)C(=O)N[C@H](C(=O)N[C@@H](Cc1ccc(O)cc1)C(N)=O)[C@@H](C)O)C(C)C)[C@@H](C)O [Example 64] (H-K([AEEA-γGlu-C20 diacid])CNTATCATQRLARFLRHSSPNFGAIPSSTPVGSNTY-NH2; disulfide 2-7; N-terminus assumed) | 22.9 nM |
| CC[C@H](C)[C@H](NC(=O)[C@H](C)NC(=O)CNC(=O)[C@H](Cc1ccccc1)NC(=O)[C@H](CC(N)=O)NC(=O)[C@@H]1CCCN1C(=O)[C@H](CO)NC(=O)[C@H](CO)NC(=O)[C@H](Cc1c[nH]cn1)NC(=O)[C@H](CCCNC(=N)N)NC(=O)[C@H](CC(C)C)NC(=O)[C@H](Cc1ccccc1)NC(=O)[C@H](CC(N)=O)NC(=O)[C@H](C)NC(=O)[C@H](CC(C)C)NC(=O)[C@H](CCCNC(=N)N)NC(=O)[C@H](CCC(N)=O)NC(=O)[C@@H](NC(=O)[C@H](C)NC(=O)[C@@H]1CSSC[C@H](NC(=O)[C@@H](N)CCCCNC(=O)COCCOCCNC(=O)COCCOCCNC(=O)CC[C@H](NC(=O)CCCCCCCCCCCCCCCCCCC(=O)O)C(=O)O)C(=O)N[C@@H](CC(N)=O)C(=O)N[C@@H]([C@@H](C)O)C(=O)N[C@@H](C)C(=O)N[C@@H]([C@@H](C)O)C(=O)N1)[C@@H](C)O)C(=O)N1CCC[C@H]1C(=O)N[C@@H](CO)C(=O)N[C@@H](CO)C(=O)N[C@H](C(=O)N[C@@H](CC(N)=O)C(=O)N[C@H](C(=O)NCC(=O)N[C@@H](CCCNC(=N)N)C(=O)N[C@@H](CC(N)=O)C(=O)N[C@H](C(=O)N[C@@H](Cc1ccc(O)cc1)C(N)=O)[C@@H](C)O)C(C)C)[C@@H](C)O [Example 95] (H-K([AEEA-AEEA-γGlu-C20 diacid])CNTATCATQRLANFLRHSSPNFGAIPSSTNVGRNTY-NH2; disulfide 2-7 (inferred); N-terminus assumed) | 21.5 nM |

Stronger by EC50, values ahead:

| EC50 | Compound |
| --- | --- |
| 3.64 nM | CC[C@H](C)[C@H](NC(=O)[C@H](C)NC(=O)CNC(=O)[C@H](Cc1ccccc1)NC(=O)[C@H](CC(N)=O)NC(=O)[C@@H]1CCCN1C(=O)[C@H](CO)NC(=O)[C@H](CO)NC(=O)[C@H](Cc1c[nH]cn1)NC(=O)[C@H](CCCNC(=N)N)NC(=O)[C@H](CC(C)C)NC(=O)[C@H](Cc1ccccc1)NC(=O)[C@H](CC(=O)O)NC(=O)[C@H](C)NC(=O)[C@H](CC(C)C)NC(=O)[C@H](CCCNC(=N)N)NC(=O)[C@H](CCC(N)=O)NC(=O)[C@@H](NC(=O)[C@H](C)NC(=O)[C@@H]1CSSC[C@H](NC(=O)[C@@H](N)CCCCNC(=O)CC[C@H](NC(=O)CCCCCCCCCCCCCCCCCCC(=O)O)C(=O)O)C(=O)N[C@@H](CC(N)=O)C(=O)N[C@@H]([C@@H](C)O)C(=O)N[C@@H](C)C(=O)N[C@@H]([C@@H](C)O)C(=O)N1)[C@@H](C)O)C(=O)N1CCC[C@H]1C(=O)N[C@@H](CO)C(=O)N[C@@H](CO)C(=O)N[C@H](C(=O)N[C@@H](CC(N)=O)C(=O)N[C@H](C(=O)NCC(=O)N1CCC[C@H]1C(=O)N[C@@H](CCCNC(=N)N)C(=O)N[C@H](C(=O)N[C@@H](Cc1ccc(O)cc1)C(N)=O)[C@@H](C)O)C(C)C)[C@@H](C)O [Example 129] (H-K([γGlu-C20 diacid])CNTATCATQRLADFLRHSSPNFGAIPSSTNVGPRTY-NH2; disulfide 2-7 (inferred); N-terminus assumed) |
| 1.11 nM | CC[C@H](C)[C@H](NC(=O)[C@H](C)NC(=O)CNC(=O)[C@H](Cc1ccccc1)NC(=O)[C@H](CC(N)=O)NC(=O)[C@@H]1CCCN1C(=O)[C@H](CO)NC(=O)[C@H](CO)NC(=O)[C@H](Cc1c[nH]cn1)NC(=O)[C@H](CCCNC(=N)N)NC(=O)[C@H](CC(C)C)NC(=O)[C@H](Cc1ccccc1)NC(=O)[C@H](CC(=O)O)NC(=O)[C@H](C)NC(=O)[C@H](CC(C)C)NC(=O)[C@H](CCCNC(=N)N)NC(=O)[C@H](CCC(N)=O)NC(=O)[C@@H](NC(=O)[C@H](C)NC(=O)[C@@H]1CSSC[C@H](NC(=O)[C@@H](N)CCCCNC(=O)CC[C@H](NC(=O)CCCCCCCCCCCCCCCCCCC(=O)O)C(=O)O)C(=O)N[C@@H](CC(N)=O)C(=O)N[C@@H]([C@@H](C)O)C(=O)N[C@@H](C)C(=O)N[C@@H]([C@@H](C)O)C(=O)N1)[C@@H](C)O)C(=O)N1CCC[C@H]1C(=O)N[C@@H](CO)C(=O)N[C@@H](CO)C(=O)N[C@H](C(=O)N[C@@H](CC(N)=O)C(=O)N[C@H](C(=O)NCC(=O)N1CCC[C@H]1C(=O)N[C@@H](CCC(=O)O)C(=O)N[C@H](C(=O)N[C@@H](Cc1ccc(O)cc1)C(N)=O)[C@@H](C)O)C(C)C)[C@@H](C)O [Example 123] (H-K([γGlu-C20 diacid])CNTATCATQRLADFLRHSSPNFGAIPSSTNVGPETY-NH2; disulfide 2-7; N-terminus assumed) |
| 0.742 nM | CC[C@H](C)[C@H](NC(=O)[C@H](C)NC(=O)CNC(=O)[C@H](Cc1ccccc1)NC(=O)[C@H](CC(N)=O)NC(=O)[C@@H]1CCCN1C(=O)[C@H](CO)NC(=O)[C@H](CO)NC(=O)[C@H](Cc1c[nH]cn1)NC(=O)[C@H](CCCNC(=N)N)NC(=O)[C@H](CC(C)C)NC(=O)[C@H](Cc1ccccc1)NC(=O)[C@H](CCC(=O)O)NC(=O)[C@H](C)NC(=O)[C@H](CC(C)C)NC(=O)[C@H](CCCNC(=N)N)NC(=O)[C@H](CCC(N)=O)NC(=O)[C@@H](NC(=O)[C@H](C)NC(=O)[C@@H]1CSSC[C@H](NC(=O)[C@H](CCCCN)NC(=O)CC[C@H](NC(=O)CCCCCCCCCCCCCCCCCCC(=O)O)C(=O)O)C(=O)N[C@@H](CC(N)=O)C(=O)N[C@@H]([C@@H](C)O)C(=O)N[C@@H](C)C(=O)N[C@@H]([C@@H](C)O)C(=O)N1)[C@@H](C)O)C(=O)N1CCC[C@H]1C(=O)N[C@@H](CO)C(=O)N[C@@H](CO)C(=O)N[C@H](C(=O)N[C@@H](CC(N)=O)C(=O)N[C@H](C(=O)NCC(=O)N[C@@H](CO)C(=O)N[C@@H](Cc1c[nH]cn1)C(=O)N[C@H](C(=O)N[C@@H](Cc1ccc(O)cc1)C(N)=O)[C@@H](C)O)C(C)C)[C@@H](C)O [Example 18] ({C20 diacid-γGlu}-KCNTATCATQRLAEFLRHSSPNFGAIPSSTNVGSHTY-NH2; disulfide 2-7) |
